For 5 compounds, IC50 results are on record in patent publication US7566699B2, “Fused heterocyclic derivative, medicinal composition containing the same, and medicinal use thereof” (Kissei Pharmaceutical Co., Ltd., priority 2003, dated 2009).

The target in one assay is T1, human SGLT1 (Homo sapiens, UniProt P13866).
T1 construct: expressed in transfected cells
T1 sequence (P13866 1-664): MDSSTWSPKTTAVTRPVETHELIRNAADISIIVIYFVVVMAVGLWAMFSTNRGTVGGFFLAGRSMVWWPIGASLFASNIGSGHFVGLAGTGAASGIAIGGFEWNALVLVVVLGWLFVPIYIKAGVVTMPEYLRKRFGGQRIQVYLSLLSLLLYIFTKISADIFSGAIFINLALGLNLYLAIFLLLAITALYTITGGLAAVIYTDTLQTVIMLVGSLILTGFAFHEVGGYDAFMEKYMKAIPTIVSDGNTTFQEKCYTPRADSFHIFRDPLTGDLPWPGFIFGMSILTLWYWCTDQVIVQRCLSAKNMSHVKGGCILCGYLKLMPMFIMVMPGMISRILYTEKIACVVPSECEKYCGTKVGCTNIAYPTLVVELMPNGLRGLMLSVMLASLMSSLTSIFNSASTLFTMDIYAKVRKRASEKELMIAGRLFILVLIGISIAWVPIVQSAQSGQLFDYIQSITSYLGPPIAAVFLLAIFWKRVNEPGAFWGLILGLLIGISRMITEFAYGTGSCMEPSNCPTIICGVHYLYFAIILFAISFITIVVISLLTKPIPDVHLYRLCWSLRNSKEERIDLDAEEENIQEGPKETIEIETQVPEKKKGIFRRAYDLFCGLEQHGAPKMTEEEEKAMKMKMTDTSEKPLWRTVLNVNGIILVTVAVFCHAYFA
Kind of assay: Assay for inhibitory effects on human SGLT1 activity (uptake of methyl-α-D-glucopyranoside). In kind it is cell-based. The conditions noted are these: inhibition of uptake of 14C-labeled methyl-α-D-glucopyranoside (1 mM) in CS1-5-11D cells stably expressing human SGLT1, 37° C., 1 hour. As to the method: Assay for Inhibitory Effects on Human SGLT1 Activity
1) Cloning and Construction of the Vector Expressing Human SGLT1
The cDNA library was prepared for PCR amplification by reverse transcription from total RNA deprived from human small intestine (Ori gene) using oligo-dT as a primer. Using this cDNA library as a template, the DNA fragment coding 1 to 2005 bp of human SGLT1 (ACCESSION: M24847), which was reported by Hediger et al., was amplified by PCR method and inserted into the multi-cloning site of pcDNA3.1(−) (Invitrogen). The DNA sequence inserted was perfectly matched to the previously reported sequence.
2) Establishment of Cell Line Stably Expressing Human SGLT1
The expression vector of human SGLT1 was digested by Sca I into a linear DNA. The linear DNA was transfected into […] cells by means of lipofection (Effectene Transfection Reagent: QIAGEN). Neomycin resistant cell lines were selected by culture in the medium containing G418 (1 mg/mL, LIFE TECHNOLOGIES), and then the activity against the uptake of methyl-αD-glucopyranoside was measured by the method described below. […] CS1-5-11D cells were cultured in the presence of G418 at 200 μg/mL. […]
CS1-5-11D cells were seeded into a 96-well culture plate at a density of 3×10^4 cells/well and cultured for 2 days, and were used in the uptake assay. […] Radioactivity was measured by means of micro-scintillation counter TopCount (Packard). […]

For the next assay, the target named is T2, human SGLT2 (Homo sapiens, UniProt P31639).
T2 construct: expressed in transfected cells
T2 sequence (P31639 1-672): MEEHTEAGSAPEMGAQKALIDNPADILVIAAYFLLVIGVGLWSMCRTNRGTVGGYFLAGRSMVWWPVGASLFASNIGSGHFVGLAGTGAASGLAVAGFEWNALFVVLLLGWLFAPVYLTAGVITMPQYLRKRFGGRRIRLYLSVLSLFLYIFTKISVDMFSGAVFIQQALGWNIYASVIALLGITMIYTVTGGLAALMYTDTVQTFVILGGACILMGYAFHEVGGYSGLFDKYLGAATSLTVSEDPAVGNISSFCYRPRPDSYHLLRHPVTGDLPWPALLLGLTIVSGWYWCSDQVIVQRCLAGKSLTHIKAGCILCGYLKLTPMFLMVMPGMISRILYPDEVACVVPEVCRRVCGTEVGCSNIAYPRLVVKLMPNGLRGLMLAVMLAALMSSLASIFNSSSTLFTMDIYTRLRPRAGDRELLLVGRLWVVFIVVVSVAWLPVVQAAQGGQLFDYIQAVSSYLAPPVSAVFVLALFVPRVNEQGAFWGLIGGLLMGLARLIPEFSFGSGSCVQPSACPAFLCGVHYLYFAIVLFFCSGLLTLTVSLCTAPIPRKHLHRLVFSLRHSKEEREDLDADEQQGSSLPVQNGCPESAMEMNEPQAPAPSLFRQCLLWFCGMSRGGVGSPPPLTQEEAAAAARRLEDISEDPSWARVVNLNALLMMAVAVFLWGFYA
Description: Assay for inhibitory effects on human SGLT2 activity (uptake of methyl-α-D-glucopyranoside). The assay is classed as cell-based. The conditions noted are these: inhibition of uptake of 14C-labeled methyl-α-D-glucopyranoside (1 mM) in CS2-5E cells (CHO-K1) stably expressing human SGLT2, 37° C., 1 hour. As to the method: Assay for Inhibitory Effects on Human SGLT2 Activity
1) Cloning and Construction of the Vector Expressing Human SGLT2
The cDNA library was prepared for PCR amplification by reverse transcription from total RNA deprived from human kidney (Ori gene) using oligo-dT as a primer. Using this cDNA library as a template, the DNA fragment coding 2 to 2039 bp of human SGLT2 (ACCESSION: M95549, M95299), which was reported by R. G. Wells et al., was amplified by PCR method and inserted into the multi-cloning site of pcDNA3.1(−) (Invitrogen). The DNA sequence inserted was perfectly matched to the previously reported sequence.
2) Establishment of Cell Line Stably Expressing Human SGLT2
The expression vector of human SGLT2 was digested by Sca I into a linear DNA. The linear DNA was transfected into CHO-K1 cells by means of lipofection (Effectene Transfection Reagent: QIAGEN). Neomycin resistant cell lines were selected by culture in the medium containing G418 (1 mg/mL, LIFE TECHNOLOGIES), and then the activity against the uptake of methyl-α-D-glucopyranoside was measured by the method described below. […] CS2-5E cells were cultured in the presence of G418 at 200 μg/mL.
3) Measurement of the Inhibitory Activity Against the Uptake of Methyl-α-D-glucopyranoside (α-MG)
CS2-5E cells were seeded into a 96-well culture plate at a density of 3×10^4 cells/well and cultured for 2 days, and were used in the uptake assay. A mixture of non-labeled (Sigma) and ^14C-labeled α-MG (Amersham Pharmacia Biotech) was added to the uptake buffer (pH 7.4; containing 140 mM sodium chloride, 2 mM potassium chloride, 1 mM calcium chloride, 1 mM magnesium chloride, 10 mM 2-[4-(2-hydroxyethyl)-1-piperazinyl]ethane sulfonic acid and 5 mM tris(hydroxymethyl)aminomethane) at the final concentration of 1 mM. […] Radioactivity was measured by means of micro-scintillation counter TopCount (Packard). One hundred % was set to the difference between the uptake in the control group and the basal uptake, and the uptake of methyl α-D-glucopyranoside at each drug concentration were calculated. […]

As usually defined, the IC50 is the concentration at which inhibition is half-maximal. A lower IC50 goes with higher potency. At human SGLT1, `OC[C@H]1O[C@@H](Oc2cc(O)cc3occ(CCc4ccccc4)c23)[C@H](O)[C@@H](O)[C@@H]1O` [Example 7, 4-(β-D-Glucopyranosyloxy)-6-hydroxy-3-(2-phenylethyl)benzofuran] yielded a 50% inhibitory concentration (IC50) of 15 nM.

`OC[C@H]1O[C@@H](Oc2cccc3occ(CCc4ccncc4)c23)[C@H](O)[C@@H](O)[C@@H]1O` [Example 43, 4-(β-D-Glucopyranosyloxy)-3-[2-(4-pyridyl)ethyl]benzofuran]: inhibition against human SGLT2 was half-maximal at 12 nM (IC50).

As for `Cc1ccccc1CCc1coc2cccc(O[C@@H]3O[C@H](CO)[C@@H](O)[C@H](O)[C@H]3O)c12` [Example 3, 4-(β-D-Glucopyranosyloxy)-3-[2-(2-methylphenyl)ethyl]-benzofuran], the IC50 against human SGLT2 was 41 nM.

At human SGLT1, `OC[C@H]1O[C@@H](Oc2cccc3occ(CCc4ccc(OCCCNC(CO)(CO)CO)cc4)c23)[C@H](O)[C@@H](O)[C@@H]1O` [Example 24, 4-(β-D-Glucopyranosyloxy)-3-[2-(4-{3-[2-hydroxy-1,1-bis(hydroxymethyl)ethylamino]propoxy}phenyl)ethyl]benzofuran] displayed an IC50 of 25 nM.

At human SGLT2, `OC[C@H]1O[C@@H](Oc2cccc3occ(CCc4ccccc4)c23)[C@H](O)[C@@H](O)[C@@H]1O` [Example 2, 4-(β-D-Glucopyranosyloxy)-3-(2-phenylethyl)benzofuran] had a concentration for half-maximal inhibition (IC50) of 6 nM.
